Results published in patent publication US20230295163A1, “TETRACYCLIC DERIVATIVE, METHOD FOR PREPARING SAME AND USE THEREOF IN MEDICINE” (ZHEJIANG HISUN PHARMACEUTICAL CO., LTD., priority 2020, published 2023).

What was measured:
NCI-H358 cells = assay: Inhibition of NCI-H358 cell proliferation (CellTiter-Glo); assay type: cell-based, human; details: Homo sapiens, NCI-H358, 120 h, 120 h of culture; read-out: IC50 inhibiting NCI-H358 cell proliferation
Experimental: The following method was used to determine the effect of the compounds of the present disclosure on the proliferation of NCI-H358 cells. NCI-H358 cells (containing KRAS G12C mutation) were purchased from the Cell Resource Center, Shanghai Institutes for Biology Sciences, Chinese Academy of Sciences, and cultured in RPMI 1640 medium containing 10% fetal bovine serum, 100 U penicillin, 100 μg/mL streptomycin and 1 mM sodium pyruvate. Cell viability was determined by CellTiter-Glo® Luminescent Cell Viability Assay Kit (Promega, Cat. No. G7573).
The experiment was conducted according to the steps in the kit instruction, which is briefly described as follows: The test compound was first prepared with DMSO into a 10 mM stock solution, which was then diluted with medium into a test sample with a final concentration of the compound ranging from 1000 nM to 0.015 nM Cells in the logarithmic growth phase were inoculated into a 96-well cell culture plate at a density of 800 cells per well, cultured overnight at 37° C. in a 5% CO2 incubator, and then added with the test compound for 120 h of culture. After the culture was completed, 50 μL of CellTiter-Glo detection solution was added to each well, shaken for 5 min and left to stand for 10 min. Subsequently, the luminescence value of the sample in each well was read by a microplate in a luminescence mode. The percentage of inhibition rate of the compounds at each concentration was calculated by comparing with the value of the control group (0.3% DMSO). Then a nonlinear regression analysis on the log concentration-inhibition rate of the compounds was performed by the software GraphPad Prism 5 to obtain the IC50 value of the compound inhibiting NCI-H358 cell proliferation. Table 2 IC50 data of compounds of the present disclosure inhibiting NCI-H358 cell proliferation Compound number IC50(nM)

[1] = molecular target: T1, hERG potassium ion channel (Homo sapiens, UniProt Q12809); assay: Inhibition of hERG potassium ion channel (QPatch, CHO hERG cells); assay type: cell-based
T1 construct: host or cells: CHO
Experimental: 1.1 The cells used in this experiment were CHO cell line (provided by Sophion Bioscience, Denmark) transfected with hERG cDNA and stably expressing hERG channels, with a cell generation of 17. The cells were cultured in a medium containing the following components (all obtained from Invitrogen): Ham's F12 medium, 10% (v/v) inactivated fetal bovine serum, 100 μg/mL hygromycin B, and 100 μg/mL geneticin.
1.2 CHO hERG cells were cultured in a petri dish containing the above culture medium in an incubator containing 5% CO2 at 37° C. 24 to 48 h before the electrophysiological experiment, CHO hERG cells were transferred to a round glass slide placed in a petri dish, and cultured in the same medium and conditions as above. The density of CHO hERG cells on each round glass slide met the requirement that the majority of cells were independent and individual.
A fully automated QPatch system (Sophion, Denmark) was used for whole-cell current recordings. Cells were clamped at a voltage of −80 mV. […]
After reaching a membrane-permeable whole-cell configuration state during the initial phase, the cells were recorded for at least 120 s to reach stabilization. […]
The test data were analyzed by analysis software Qpatch provided by Sophion, Excel, Graphpad Prism, and the like.

T1 sequence (Q12809 whole entry): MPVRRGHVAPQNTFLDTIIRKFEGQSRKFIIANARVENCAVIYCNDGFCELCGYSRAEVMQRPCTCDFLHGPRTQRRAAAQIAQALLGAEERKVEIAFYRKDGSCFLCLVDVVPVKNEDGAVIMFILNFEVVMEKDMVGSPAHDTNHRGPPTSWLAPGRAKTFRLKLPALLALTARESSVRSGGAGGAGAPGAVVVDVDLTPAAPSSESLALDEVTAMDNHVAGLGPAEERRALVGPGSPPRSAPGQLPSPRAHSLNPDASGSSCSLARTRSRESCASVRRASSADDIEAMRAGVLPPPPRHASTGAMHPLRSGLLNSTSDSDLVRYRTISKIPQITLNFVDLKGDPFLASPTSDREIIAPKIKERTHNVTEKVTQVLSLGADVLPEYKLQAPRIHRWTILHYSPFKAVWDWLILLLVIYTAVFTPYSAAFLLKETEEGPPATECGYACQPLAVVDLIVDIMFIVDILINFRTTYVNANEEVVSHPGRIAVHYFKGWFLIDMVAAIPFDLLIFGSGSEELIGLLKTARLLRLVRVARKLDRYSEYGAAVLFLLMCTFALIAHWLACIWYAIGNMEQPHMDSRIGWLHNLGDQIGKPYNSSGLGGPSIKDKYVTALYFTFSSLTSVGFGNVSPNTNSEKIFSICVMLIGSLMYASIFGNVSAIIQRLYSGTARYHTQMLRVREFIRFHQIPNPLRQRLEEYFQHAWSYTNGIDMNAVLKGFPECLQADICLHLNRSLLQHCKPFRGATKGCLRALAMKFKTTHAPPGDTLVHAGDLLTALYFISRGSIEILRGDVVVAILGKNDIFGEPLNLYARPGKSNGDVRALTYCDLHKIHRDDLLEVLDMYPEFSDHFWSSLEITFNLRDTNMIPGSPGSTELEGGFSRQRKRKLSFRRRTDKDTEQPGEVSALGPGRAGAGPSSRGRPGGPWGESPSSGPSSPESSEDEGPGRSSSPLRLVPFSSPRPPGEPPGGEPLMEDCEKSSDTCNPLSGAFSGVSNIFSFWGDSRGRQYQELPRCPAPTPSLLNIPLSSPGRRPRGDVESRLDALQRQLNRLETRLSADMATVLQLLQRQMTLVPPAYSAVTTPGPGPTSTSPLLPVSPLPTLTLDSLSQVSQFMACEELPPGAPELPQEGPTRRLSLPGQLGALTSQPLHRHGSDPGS

IC50 (NCI-H358 cells): 21.1 nM
SMILES: C=CC(=O)N1C[C@@H]2C(=O)N(C)c3c(c4cc(Cl)c(-c5c(O)cccc5F)nc4n(-c4c(SC)ccnc4C(C)C)c3=O)N2C[C@H]1C (single isomer, unassigned) [Compound 17]
Inhibitory effect on heart hERG potassium ion channel (in words) [1]: no obvious inhibitory effect | IC50 ([1]; highest test concentration 30 μM): > 30000 nM
